Laboratory results as given in patent publication US20210137966A1, “VIRUCIDAL COMPOUNDS AND USES THEREOF” (priority 2016, published 2021).

Assays:
[1] = test system: LV-VSV-G; type: cell-based, VSV-G pseudotyped lentivirus
[2] = test system: HPV-16; test: Evaluation of virucidal activity against HPV-16; type: cell-based, human papillomavirus (HPV); conditions: FIG. 6
Procedure: (§1) Evaluation of Virucidal Activity Against HSV-2, HPV-16
(§2) Viral titers were calculated at dilutions at which the nanoparticle was not effective

[3] = test system: HSV-2; test: Evaluation of virucidal activity against HSV-2; type: cell-based; conditions: HSV-2, virucidal assay (FIG. 1/2 bottom)
Procedure: as §1, §2

[4] = test system: HSV-2; test: Inhibition assay HSV-2 (dose response, plaque reduction in Vero cells); type: cell-based; conditions: HSV-2, dose response assay (FIG. 1/2 top)
Procedure: The effect of cyclodextrins (CDs) on HSV infection was evaluated by a plaque reduction assay. Vero cells were pre-plated 24 h in advance in 24-well plates at a density of 10^5 cells. Increasing concentrations of cyclodextrins were incubated with HSV-2 (multiplicity of infection (MOI) 0.0003 plaque forming units (pfu)/cell) at 37° C. for 1 hour and then the mixtures were added to the cells. Following virus adsorption (2 h at 37° C.), the virus inoculum was removed, the cells were washed with medium and then overlaid with a medium containing 1.2% methylcellulose. After 24 h (HSV-2) of incubation at 37° C., cells were fixed and stained with 0.1% of crystal violet in 20% ethanol and viral plaques were counted. The concentration producing 50% reduction in plaque formation (IC50) was determined using the Prism software by comparing drug-treated and untreated wells.

Molecule	Virucidal assay, Dilutions: 1:10 [1]	Virucidal assay, Dilutions: Stock [1]	Virucidal effect against human papillomavirus (HPV) [2]	Virucidal effect against Lenti virus [1]	Virucidal effect against HSV-2 in virucidal assay [3]	Inhibition of HSV-2 in dose response assay [4]
O[C@@H]1[C@@H](O)[C@H]2O[C@H]3[C@H](O)[C@@H](O)[C@@H](O[C@H]4[C@H](O)[C@@H](O)[C@@H](O[C@H]5[C@H](O)[C@@H](O)[C@@H](O[C@H]6[C@H](O)[C@@H](O)[C@@H](O[C@H]7[C@H](O)[C@@H](O)[C@@H](O[C@H]8[C@H](O)[C@@H](O)[C@@H](O[C@@H]1[C@@H](CI)O2)O[C@@H]8CI)O[C@@H]7CI)O[C@@H]6CI)O[C@@H]5CI)O[C@@H]4CI)O[C@@H]3CI [CD1, Heptakis-6-iodo-6-deoxy-beta-cyclodextrin]	27.38	85.49				
O=S(=O)(O)CCCCCCCCCCCSCC1OC2OC3C(CSCCCCCCCCCCCS(=O)(=O)O)OC(OC4C(CSCCCCCCCCCCCS(=O)(=O)O)OC(OC5C(CSCCCCCCCCCCCS(=O)(=O)O)OC(OC6C(CSCCCCCCCCCCCS(=O)(=O)O)OC(OC7C(CSCCCCCCCCCCCS(=O)(=O)O)OC(OC8C(CSCCCCCCCCCCCS(=O)(=O)O)OC(OC1C(O)C2O)C(O)C8O)C(O)C7O)C(O)C6O)C(O)C5O)C(O)C4O)C(O)C3O (stereo not shown) [CD2]			virucidal effect	virucidal effect	Virucidal effect observed	
beta-cyclodextrin sulfonate [reference compound]					no virucidal effect is observed	Inhibition is observed at high concentrations
